{
  "source": "paper PMC3735122",
  "about": "(mBio, 2013)",
  "origin": "cited, not measured here",
  "data": [
    {"tested_on": "seasonal H3N2 isolates with R292K NA mutation", "details": "cited from earlier work", "values": [
      {"smiles": "CCC(CC)O[C@@H]1C=C(C(=O)O)C[C@H](N)[C@H]1NC(C)=O", "note": "[oseltamivir carboxylate]", "sensitivity of seasonal H3N2 isolates with R292K mutation": "significantly reduced sensitivity"},
      {"smiles": "CCC(CC)[C@H](NC(C)=O)[C@@H]1[C@H](O)[C@@H](C(=O)O)C[C@H]1N=C(N)N", "note": "[peramivir]", "sensitivity of seasonal H3N2 isolates with R292K mutation": "intermediate resistance"},
      {"smiles": "CC(=O)N[C@H]1[C@H]([C@H](O)[C@H](O)CO)OC(C(=O)O)=C[C@@H]1N=C(N)N", "note": "[zanamivir]", "sensitivity of seasonal H3N2 isolates with R292K mutation": "slightly reduced sensitivity"}
    ]}
  ]
}
